Test results from patent US20110021565A1, “PIPERIDINE DERIVATIVES AS NK3 ANTAGONISTS” (priority 2007, published 2011).

Target: T1, recombinant human NK3 receptor (Homo sapiens, UniProt P29371)
T1 construct: expressed in transfected cells; host or cells: HEK293 cells, transient expression; membrane preparation
T1 sequence (P29371 1-465): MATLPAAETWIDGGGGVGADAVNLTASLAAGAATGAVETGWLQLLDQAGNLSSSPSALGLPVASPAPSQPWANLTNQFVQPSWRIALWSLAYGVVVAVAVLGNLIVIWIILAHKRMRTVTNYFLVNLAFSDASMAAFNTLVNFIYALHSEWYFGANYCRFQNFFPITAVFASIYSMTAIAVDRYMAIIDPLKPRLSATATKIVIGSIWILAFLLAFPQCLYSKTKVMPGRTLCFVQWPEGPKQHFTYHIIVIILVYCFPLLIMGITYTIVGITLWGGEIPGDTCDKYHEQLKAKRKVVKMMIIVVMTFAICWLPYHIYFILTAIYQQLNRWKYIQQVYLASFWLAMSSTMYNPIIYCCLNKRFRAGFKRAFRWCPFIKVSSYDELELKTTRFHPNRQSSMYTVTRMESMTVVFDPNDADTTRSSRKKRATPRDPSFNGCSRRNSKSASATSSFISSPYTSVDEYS
Test: [3H]SR142801 competition binding assay
Settings: [3H]SR142801, membranes of HEK293 cells transiently expressing recombinant human NK3 receptor; read-out: hNK3 Ki
Procedure, shortened: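 Ki derived by Cheng-Prusoff from Hill-fitted IC50 curves, duplicates, 10 μM SB222200 defining nonspecific binding. Radioligand used at KD concentration against compound at 0.0003-10 μM; transiently transfected HEK293 membranes, 5 μg/well, 75 min room temperature, Tris-HCl/MnCl2/phosphoramidon/BSA pH 7.4. Filter-bound counts read by scintillation.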

| Compound | Ki |
| --- | --- |
| CC(CCN1CCC(NS(C)(=O)=O)CC1)(C(=O)NCc1ccc(Cl)c(F)c1)c1ccc(Cl)c(Cl)c1 (stereo not shown) [Example 22, N-(4-Chloro-3-fluoro-benzyl)-2-(3,4-dichloro-phenyl)-4-(4-methanesulfonyl-amino-piperidin-1-yl)-2-methyl-butyramide] | 70.8 nM |
| CC(CCN1CCC(NS(C)(=O)=O)CC1)(C(=O)NCc1ccc(OC(F)(F)F)cc1)c1ccc(Cl)c(Cl)c1 (stereo not shown) [Example 23, 2-(3,4-Dichloro-phenyl)-4-(4-methanesulfonyl-amino-piperidin-1-yl)-2-methyl-N-(4-trifluoromethoxy-benzyl)-butyramide] | 140 nM |
| CC(CCN1CCC(NS(C)(=O)=O)CC1)(C(=O)NCc1ccc(Cl)c(C(F)(F)F)c1)c1ccc(Cl)c(Cl)c1 (stereo not shown) [Example 24, N-(4-Chloro-3-trifluoromethyl-benzyl)-2-(3,4-dichloro-phenyl)-4-(4-methanesulfonyl-amino-piperidin-1-yl)-2-methyl-butyramide] | 71.4 nM |
| CN(Cc1ccc(C(F)(F)F)cc1)C(=O)C(C)(CCN1CCC(NS(C)(=O)=O)CC1)c1ccc(Cl)c(Cl)c1 (stereo not shown) [Example 25, 2-(3,4-Dichloro-phenyl)-4-(4-methanesulfonyl-amino-piperidin-1-yl)-2,N-dimethyl-N-(4-trifluoromethyl-benzyl)-butyramide] | 28.7 nM |
| CN(Cc1ccc(Cl)cc1)C(=O)C(C)(CCN1CCC(NS(C)(=O)=O)CC1)c1ccc(Cl)c(Cl)c1 (stereo not shown) [Example 26, N-(4-Chloro-benzyl)-2-(3,4-dichloro-phenyl)-4-(4-methanesulfonyl-amino-piperidin-1-yl)-2,N-dimethyl-butyramide] | 26.5 nM |
| CC(CCN1CCC(NS(C)(=O)=O)CC1)(C(=O)NCc1ccc(C#N)cc1)c1ccc(Cl)c(Cl)c1 (stereo not shown) [Example 27, N-(4-Cyano-benzyl)-2-(3,4-dichloro-phenyl)-4-(4-methanesulfonyl-amino-piperidin-1-yl)-2-methyl-butyramide] | 263 nM |
| CN(Cc1cccc(Cl)c1)C(=O)C(C)(CCN1CCC(NS(C)(=O)=O)CC1)c1ccc(Cl)c(Cl)c1 (stereo not shown) [Example 29, N-(3-Chloro-benzyl)-2-(3,4-dichloro-phenyl)-4-(4-methanesulfonyl-amino-piperidin-1-yl)-2,N-dimethyl-butyramide] | 48.5 nM |
| CN(Cc1ccc(C(F)(F)F)nc1)C(=O)C(C)(CCN1CCC(NS(C)(=O)=O)CC1)c1ccc(Cl)c(Cl)c1 (stereo not shown) [Example 31, 2-(3,4-Dichloro-phenyl)-4-(4-methanesulfonyl-amino-piperidin-1-yl)-2,N-dimethyl-N-(6-trifluoromethyl-pyridin-3-ylmethyl)-butyramide] | 500 nM |
| CN(Cc1ccc(Cl)c(Cl)c1)C(=O)C(CCN1CCC(NS(C)(=O)=O)CC1)c1ccc(Cl)c(Cl)c1 (stereo not shown) [Example 34, N-(3,4-Dichloro-benzyl)-2-(3,4-dichloro-phenyl)-4-(4-methanesulfonyl-amino-piperidin-1-yl)-N-methyl-butyramide] | 77.5 nM |
| Cc1ccc(CN(C)C(=O)C(CCN2CCC(NS(C)(=O)=O)CC2)c2ccc(Cl)c(Cl)c2)cc1 (stereo not shown) [Example 38, 2-(3,4-Dichloro-phenyl)-4-(4-methanesulfonyl-amino-piperidin-1-yl)-N-methyl-N-(4-methyl-benzyl)-butyramide] | 92.9 nM |
| CN(Cc1cccc(Cl)c1)C(=O)C(CCN1CCC(NS(C)(=O)=O)CC1)c1ccc(Cl)c(Cl)c1 (stereo not shown) [Example 39, N-(3-Chloro-benzyl)-2-(3,4-dichloro-phenyl)-4-(4-methanesulfonyl-amino-piperidin-1-yl)-N-methyl-butyramide] | 213 nM |
| CN(Cc1cccc(C(F)(F)F)c1)C(=O)C(CCN1CCC(NS(C)(=O)=O)CC1)c1ccc(Cl)c(Cl)c1 (stereo not shown) [Example 40, 2-(3,4-Dichloro-phenyl)-4-(4-methanesulfonyl-amino-piperidin-1-yl)-N-methyl-N-(3-trifluoromethyl-benzyl)-butyramide] | 280 nM |
| CS(=O)(=O)NC1CCN(CCC(C(=O)NCc2ccc(Cl)c(Cl)c2)c2ccc(Cl)c(Cl)c2)CC1 (stereo not shown) [Example 42, N-(3,4-Dichloro-benzyl)-2-(3,4-dichloro-phenyl)-4-(4-methanesulfonyl-amino-piperidin-1-yl)-butyramide] | 192 nM |
| CN(Cc1ccc(F)c(C(F)(F)F)c1)C(=O)C(CCN1CCC(NS(C)(=O)=O)CC1)c1ccc(Cl)c(Cl)c1 (stereo not shown) [Example 44, 2-(3,4-Dichloro-phenyl)-N-(4-fluoro-3-trifluoromethyl-benzyl)-4-(4-methanesulfonyl-amino-piperidin-1-yl)-N-methyl-butyramide] | 132 nM |
| CN(Cc1ccc(Cl)c(C(F)(F)F)c1)C(=O)C(C)(CCN1CCC(N(C)S(C)(=O)=O)CC1)c1ccc(Cl)c(Cl)c1 (stereo not shown) [Example 46, N-(4-Chloro-3-trifluoromethyl-benzyl)-2-(3,4-dichloro-phenyl)-4-[4-(methanesulfonyl-methyl-amino)-piperidin-1-yl]-2,N-dimethyl-butyramide] | 2.4 nM |
| CN(Cc1ccc(F)c(C(F)(F)F)c1)C(=O)C(C)(CCN1CCC(N(C)S(C)(=O)=O)CC1)c1ccc(Cl)c(Cl)c1 (stereo not shown) [Example 47, 2-(3,4-Dichloro-phenyl)-N-(4-fluoro-3-trifluoromethyl-benzyl)-4-[4-(methanesulfonyl-methyl-amino)-piperidin-1-yl]-2,N-dimethyl-butyramide] | 2.1 nM |
| CN(Cc1ccc(Cl)c(Cl)c1)C(=O)C(C)(CCN1CCC(N(C)S(C)(=O)=O)CC1)c1ccc(Cl)c(Cl)c1 (stereo not shown) [Example 48, N-(3,4-Dichloro-benzyl)-2-(3,4-dichloro-phenyl)-4-[4-(methanesulfonyl-methyl-amino)-piperidin-1-yl]-2,N-dimethyl-butyramide] | 3.6 nM |

More lines, in order of falling Ki, values ahead:

| Ki | Compound |
| --- | --- |
| 354 nM | CS(=O)(=O)NC1CCN(CCC(C(=O)NCc2ccc(Cl)c(C(F)(F)F)c2)c2ccc(Cl)c(Cl)c2)CC1 (stereo not shown) [Example 36, N-(4-Chloro-3-trifluoromethyl-benzyl)-2-(3,4-dichloro-phenyl)-4-(4-methanesulfonyl-amino-piperidin-1-yl)-butyramide] |
| 259 nM | CN(Cc1ccccc1Cl)C(=O)C(CCN1CCC(NS(C)(=O)=O)CC1)c1ccc(Cl)c(Cl)c1 (stereo not shown) [Example 41, N-(2-Chloro-benzyl)-2-(3,4-dichloro-phenyl)-4-(4-methanesulfonyl-amino-piperidin-1-yl)-N-methyl-butyramide] |
| 254 nM | CN(Cc1cccc(F)c1)C(=O)C(CCN1CCC(NS(C)(=O)=O)CC1)c1ccc(Cl)c(Cl)c1 (stereo not shown) [Example 43, 2-(3,4-Dichloro-phenyl)-N-(3-fluoro-benzyl)-4-(4-methanesulfonyl-amino-piperidin-1-yl)-N-methyl-butyramide] |
| 149 nM | CN(Cc1ccc(Cl)c(C(F)(F)F)c1)C(=O)C(CCN1CCC(NS(C)(=O)=O)CC1)c1ccc(Cl)c(Cl)c1 (stereo not shown) [Example 35, N-(4-Chloro-3-trifluoromethyl-benzyl)-2-(3,4-dichloro-phenyl)-4-(4-methanesulfonyl-amino-piperidin-1-yl)-N-methyl-butyramide] |
| 123 nM | CN(Cc1cccc(F)c1)C(=O)C(C)(CCN1CCC(NS(C)(=O)=O)CC1)c1ccc(Cl)c(Cl)c1 (stereo not shown) [Example 30, 2-(3,4-Dichloro-phenyl)-N-(3-fluoro-benzyl)-4-(4-methanesulfonyl-amino-piperidin-1-yl)-2,N-dimethyl-butyramide] |
| 81.6 nM | CN(Cc1ccc(C(F)(F)F)cc1)C(=O)C(CCN1CCC(NS(C)(=O)=O)CC1)c1ccc(Cl)c(Cl)c1 (stereo not shown) [Example 33, 2-(3,4-Dichloro-phenyl)-4-(4-methanesulfonyl-amino-piperidin-1-yl)-N-methyl-N-(4-trifluoromethyl-benzyl)-butyramide] |
| 78.7 nM | CN(Cc1ccc(Cl)cc1)C(=O)C(CCN1CCC(NS(C)(=O)=O)CC1)c1ccc(Cl)c(Cl)c1 (stereo not shown) [Example 37, N-(4-Chloro-benzyl)-2-(3,4-dichloro-phenyl)-4-(4-methanesulfonyl-amino-piperidin-1-yl)-N-methyl-butyramide] |
| 61.7 nM | CN(Cc1ccc(C(F)(F)F)c(F)c1)C(=O)C(CCN1CCC(NS(C)(=O)=O)CC1)c1ccc(Cl)c(Cl)c1 (stereo not shown) [Example 32, 2-(3,4-Dichloro-phenyl)-N-(3-fluoro-4-trifluoromethyl-benzyl)-4-(4-methanesulfonyl-amino-piperidin-1-yl)-N-methyl-butyramide] |
| 21.7 nM | CN(Cc1cccc(C(F)(F)F)c1)C(=O)C(C)(CCN1CCC(NS(C)(=O)=O)CC1)c1ccc(Cl)c(Cl)c1 (stereo not shown) [Example 28, 2-(3,4-Dichloro-phenyl)-4-(4-methanesulfonyl-amino-piperidin-1-yl)-2,N-dimethyl-N-(3-trifluoromethyl-benzyl)-butyramide] |
| 8.5 nM | CN(Cc1ccc(C(F)(F)F)c(F)c1)C(=O)C(C)(CCN1CCC(N(C)S(C)(=O)=O)CC1)c1ccc(Cl)c(Cl)c1 (stereo not shown) [Example 45, 2-(3,4-Dichloro-phenyl)-N-(3-fluoro-4-trifluoromethyl-benzyl)-4-[4-(methanesulfonyl-methyl-amino)-piperidin-1-yl]-2,N-dimethyl-butyramide] |

Same assay, conditions: representative compounds; [3H]SR142801, HEK293 membranes, human NK3 receptor; read-out: Ki NK3 h

| Ki | Compound |
| --- | --- |
| 8.5 nM | CN(Cc1ccc(C(F)(F)F)c(F)c1)C(=O)C(C)(CCN1CCC(N(C)S(C)(=O)=O)CC1)c1ccc(Cl)c(Cl)c1 (stereo not shown) [Example 45, 2-(3,4-Dichloro-phenyl)-N-(3-fluoro-4-trifluoromethyl-benzyl)-4-[4-(methanesulfonyl-methyl-amino)-piperidin-1-yl]-2,N-dimethyl-butyramide] |
| 2.4 nM | CN(Cc1ccc(Cl)c(C(F)(F)F)c1)C(=O)C(C)(CCN1CCC(N(C)S(C)(=O)=O)CC1)c1ccc(Cl)c(Cl)c1 (stereo not shown) [Example 46, N-(4-Chloro-3-trifluoromethyl-benzyl)-2-(3,4-dichloro-phenyl)-4-[4-(methanesulfonyl-methyl-amino)-piperidin-1-yl]-2,N-dimethyl-butyramide] |
| 2.1 nM | CN(Cc1ccc(F)c(C(F)(F)F)c1)C(=O)C(C)(CCN1CCC(N(C)S(C)(=O)=O)CC1)c1ccc(Cl)c(Cl)c1 (stereo not shown) [Example 47, 2-(3,4-Dichloro-phenyl)-N-(4-fluoro-3-trifluoromethyl-benzyl)-4-[4-(methanesulfonyl-methyl-amino)-piperidin-1-yl]-2,N-dimethyl-butyramide] |
| 3.6 nM | CN(Cc1ccc(Cl)c(Cl)c1)C(=O)C(C)(CCN1CCC(N(C)S(C)(=O)=O)CC1)c1ccc(Cl)c(Cl)c1 (stereo not shown) [Example 48, N-(3,4-Dichloro-benzyl)-2-(3,4-dichloro-phenyl)-4-[4-(methanesulfonyl-methyl-amino)-piperidin-1-yl]-2,N-dimethyl-butyramide] |
